Assay results reported in patent publication US12612368B2 (Remedy Plan, Inc., priority 2019, dated 2026).

Tests used:
MV-4-11 cells = experiment: Cell viability in MV-4-11 cells (CellTiter Glo2); type: cell-based; conditions: Homo sapiens, MV4-11, 96 h, 8-point dose response, 4 days, CellTiter Glo2 (Table E2), read-out: MV-4-11 Cell Viability, MV-4-11 IC50
Experimental: Approximately 10,000 MV-4-11 cells per well of a 96-well plate were treated with DMSO (no drug control) or each compound in Tables E1 and E2 in an 8-point dose response for 4 days, Cell viability was measured using CellTiter Glo2. The ICse of each compound was determined using CDD Vault.

NAMPT = molecular target: T1, NAMPT (Homo sapiens, UniProt P43490); experiment: NAMPT Activity Assay (Abcam #ab221819); type: biochemical; conditions: purified NAMPT, two-step reaction, OD450 nm; percent inhibition vs no drug; compound concentration not stated
T1 construct: purchased Abcam ab221819
T1 sequence (P43490 whole entry): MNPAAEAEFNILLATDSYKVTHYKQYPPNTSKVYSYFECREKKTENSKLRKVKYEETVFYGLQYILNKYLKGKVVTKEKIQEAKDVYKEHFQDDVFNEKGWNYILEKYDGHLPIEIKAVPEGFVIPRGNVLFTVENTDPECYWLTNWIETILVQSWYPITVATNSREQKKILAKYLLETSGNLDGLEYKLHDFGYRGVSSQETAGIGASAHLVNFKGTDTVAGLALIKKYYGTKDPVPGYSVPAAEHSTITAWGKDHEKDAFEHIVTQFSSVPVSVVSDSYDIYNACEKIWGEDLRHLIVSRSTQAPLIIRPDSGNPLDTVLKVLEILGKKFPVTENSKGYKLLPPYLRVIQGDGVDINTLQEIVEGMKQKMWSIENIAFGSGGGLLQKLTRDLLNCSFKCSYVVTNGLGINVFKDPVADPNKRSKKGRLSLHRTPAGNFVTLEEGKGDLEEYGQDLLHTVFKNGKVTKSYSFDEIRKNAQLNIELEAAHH

Row | Compound | IC50 (MV-4-11 cells) | NAMPT Inhibition Code (NAMPT)
1 | CCC(=O)N(C)c1ccc(-c2ccc(C(=O)NCc3cccnc3C(F)(F)F)cn2)cc1C [Compound I-511, 6-[3-Methyl-4-[methyl(propanoyl)amino]phenyl]-N-[[2-(trifluoromethyl)-3-pyridyl]methyl]pyridine-3-carboxamide] | 7070 nM | A (A = <33% inhibition)
2 | CC(=O)N(c1ccc(-c2ccc(C(=O)NCc3cccnc3)cc2)cc1Cl)C(C)C [Compound I-597, 4-[4-[Acetyl(isopropyl)amino]-3-chloro-phenyl]-N-(3-pyridylmethyl)benzamide] | 21.6 nM | C (C = ≥66% inhibition)
3 | CC(=O)N(CC1CC1)c1ccc(-c2ccc(C(=O)NCc3cccnc3)cn2)cc1Cl [Compound I-602, 6-[4-[Acetyl(cyclopropylmethyl)amino]-3-chloro-phenyl]-N-(3-pyridylmethyl)pyridine-3-carboxamide] | 5.56 nM | C (C = ≥66% inhibition)

More lines, in order of falling IC50 (MV-4-11 cells), values ahead:

Row | IC50 (MV-4-11 cells) | NAMPT Inhibition Code (NAMPT) | Compound
4 | 787 nM | A (A = <33% inhibition) | CCC(=O)N(C)c1ccc(-c2ccc(C(=O)NCc3ccc(NCCN)nc3)cn2)cc1C [Compound I-527, N-((6-((2-aminoethyl)amino)pyridin-3-yl)methyl)-6-(3-methyl-4-(N-methylpropionamido)phenyl)nicotinamide]
5 | 0.566 nM | C (C = ≥66% inhibition) | CC(=O)N(CC1CC1)c1ccc(-c2ccc(C(=O)NCc3ccc4nccn4c3)cn2)cc1Cl [Compound I-679, 6-[4-[Acetyl(cyclopropylmethyl)amino]-3-chloro-phenyl]-N-(imidazo[1,2-a]pyridin-6-ylmethyl)pyridine-3-carboxamide]
